Results: article PMC12596928 (Chembiochem, 2025)
Several values for one entry are separate records, joined by “and”; a condition that tells them apart may be missing. Equal entries are not always repeated. Structures can show the parent of a compound that is named as a salt. Where two headings read alike, the source gives them in different places.

Key:
SdeA [1] = biological target: T1, SdeA (Legionella pneumophila subsp. pneumophila, UniProt Q5ZTK4); format: biochemical
SdeA [2] = biological target: T1, SdeA; assay: biochemical
SdeA [3] = biological target: T1, SdeA; assay: biochemical; remark: listed apart in the source

T1 sequence (Q5ZTK4 231-1190 limits assumed): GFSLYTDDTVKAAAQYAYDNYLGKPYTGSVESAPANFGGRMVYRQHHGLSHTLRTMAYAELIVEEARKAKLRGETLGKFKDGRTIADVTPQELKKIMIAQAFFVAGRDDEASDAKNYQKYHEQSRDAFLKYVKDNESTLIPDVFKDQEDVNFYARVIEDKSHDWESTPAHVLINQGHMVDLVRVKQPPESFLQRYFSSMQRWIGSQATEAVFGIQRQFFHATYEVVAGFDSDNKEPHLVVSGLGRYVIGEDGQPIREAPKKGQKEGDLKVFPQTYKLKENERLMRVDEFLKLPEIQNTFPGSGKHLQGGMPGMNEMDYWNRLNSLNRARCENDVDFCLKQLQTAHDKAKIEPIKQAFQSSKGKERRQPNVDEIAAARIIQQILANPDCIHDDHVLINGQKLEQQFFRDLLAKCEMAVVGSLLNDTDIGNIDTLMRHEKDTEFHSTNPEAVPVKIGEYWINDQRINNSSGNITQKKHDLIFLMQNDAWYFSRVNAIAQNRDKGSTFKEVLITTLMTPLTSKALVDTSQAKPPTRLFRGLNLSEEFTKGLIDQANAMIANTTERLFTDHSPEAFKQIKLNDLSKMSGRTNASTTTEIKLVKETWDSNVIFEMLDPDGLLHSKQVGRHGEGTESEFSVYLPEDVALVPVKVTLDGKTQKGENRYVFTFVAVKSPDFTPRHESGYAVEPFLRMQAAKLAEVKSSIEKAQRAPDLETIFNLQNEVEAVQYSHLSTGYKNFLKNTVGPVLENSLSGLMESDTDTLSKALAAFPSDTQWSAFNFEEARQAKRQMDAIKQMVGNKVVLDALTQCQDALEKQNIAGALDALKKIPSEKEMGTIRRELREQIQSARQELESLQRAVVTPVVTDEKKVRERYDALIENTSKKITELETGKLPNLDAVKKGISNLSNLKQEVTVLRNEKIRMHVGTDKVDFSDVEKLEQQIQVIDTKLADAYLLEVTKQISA

Row | SMILES | inhibition at 5 µM (SdeA [2]) | IC50 (SdeA [3]; read-out: IC50) | further results
1 | CCCCCCCC(=O)ON1C(=O)CCC1=O [N‐succinimidyl octanoate] |  |  | inhibition of SdeA (SdeA [1]): full inhibition
2 | O=c1c(O)c(-c2ccc(O)c(O)c2)oc2cc(O)cc(O)c12 [Quercetin dihydrate] | 52.2% |  | 
3 | [Cl-].[Cl-].[Zn+2] [ZnCl2] |  | 0.46 µM and 0.3 µM | fold difference in IC50 between zinc and copper (SdeA [3]): 40 fold
4 | CC(=O)OCC1=C(C(=O)O)N2C(=O)[C@@H](NC(=O)CCC[C@@H](N)C(=O)O)[C@H]2SC1 [Cephalosporin C zinc salt, cephalosporin C Zn^2+ salt] | 74.6% |  | IC50 (SdeA [3]; IC50): 0.221 µM and 0.2 µM; Inhibition (SdeA [2]): 75%
5 | [Cl][Ni][Cl] [NiCl2] |  | 67.1 µM | 
6 | O=[N+]([O-])[O-].O=[N+]([O-])[O-].[Cd+2] [Cd(NO3)2] |  | 29.8 µM | 
7 | [Cl-].[Cl-].[Mg+2] [MgCl2] |  |  | IC50 (μM) (SdeA [3]): do not show any inhibitory effect and n.i
8 | N#CC(C#N)=C(N)/C(C#N)=C/c1cc(O)c(O)c(O)c1 [Tyrphostin A51] | 98.2% |  | 
9 | O=C(O)C1=CC(=C(c2ccc(O)c(C(=O)O)c2)c2ccc(O)c(C(=O)O)c2)C=CC1=O [Aurintricarboxylic acid] | 96.3% |  | 
10 | O=c1cc2c(=O)oc3cc(O)c(O)oc3c2c(O)c1O [Galloflavin potassium salt] | 92.4% |  | 
11 | NC(=O)c1cccc(N)c1 [3‐AB, 3‐aminobenzamide] |  |  | behaviour as potential positive control (SdeA [1]): auto‐fluorescent
12 | [Cl][Mn][Cl] [MnCl2] |  |  | IC50 (μM) (SdeA [3]): do not show any inhibitory effect and n.i
13 | O=[N+]([O-])[O-].O=[N+]([O-])[O-].[Pb+2] [Pb(NO3)2] |  | 43.6 µM | 
14 | O=c1cc(-c2ccccc2)oc2c(O)c(O)ccc12 [Dihydroxyflavone] | 96.5% |  | 
15 | [Cl][Cu][Cl] [CuCl2] |  | 12.3 µM | 
